Calls of active or inactive are those of the source.
How the values were obtained:
[1] = system: MG-63; test: Inhibition of cell migration in human MG-63 cells assessed as reduction of cell mobility after 48 hrs by scratch-wound healing assay; format: functional, cell-based; settings: dose 0.1-0.4 µM, DDE = dose-dependent effect
[2] = system: HOS-TE85; test: Induction of apoptosis in human MNNG/HOS cells at 0.4 uM after 48 hrs by Annexin V/PI staining based flow cytometric analysis; format: functional, cell-based
[3] = system: MG-63; test: Inhibition of FAK expression in human MG-63 cells incubated for 48 hrs by Western blot analysis; format: functional, cell-based; settings: dose 0.1-0.4 µM, DDE = dose-dependent effect
[4] = system: MG-63; test: Antimigratory activity against human MG-63 cells assessed as reduction in cell spreading area upto 48 hrs by DAPI staining based immunofluorescence microscopic analysis; format: functional; settings: dose 0.1-0.4 µM, DDE = dose-dependent effect
[5] = system: HOS-TE85; test: Inhibition of alpha tubulin expression in human MNNG/HOS cells at 0.1 to 0.4 uM measured after 48 hrs by western blot analysis; format: functional, cell-based; settings: dose 0.1-0.4 µM
[6] = system: HOS-TE85; test: Antimigratory activity against human MNNG/HOS cells assessed as reduction in cell spreading area upto 48 hrs by DAPI staining based immunofluorescence microscopic analysis; format: functional; settings: dose 0.1-0.4 µM, DDE = dose-dependent effect
[7] = system: HOS-TE85; test: In vivo inhibition of PDGFRbeta-mediated downstream signalling in human MNNG/HOS cells xenografted in BALB/c nude mouse assessed as phosphorylation of PDGFR in tumor tissue at 15 to 30 mg/kg/day, po for 14 days; format: functional, organism-based; settings: dose lower […], dose upper 30.0 mg/kg/day, time 14.0 day
[8] = system: HOS-TE85; test: Induction of apoptosis in human MNNG/HOS cells xenografted in BALB/c nude mouse at 15 to 30 mg/kg/day, po dosed for 14 days by immunohistochemistry analysis; format: functional, organism-based; settings: dose lower […], dose upper 30.0 mg/kg/day, time 14.0 day
[9] = system: MG-63; test: Inhibition of cell adhesion in human MG-63 cells at 0.1 to 0.4 uM measured after 48 hrs by crystal violet staining based analysis; format: functional; settings: dose 0.1-0.4 µM
[10] = system: HOS-TE85; test: In vivo inhibition of PDGFRbeta-mediated downstream signalling in human MNNG/HOS cells xenografted in BALB/c nude mouse assessed as phosphorylation of AKT in tumor tissue at 15 to 30 mg/kg/day, po for 14 days; format: functional, organism-based; settings: dose lower […], dose upper 30.0 mg/kg/day, time 14.0 day
[11] = system: HOS-TE85; test: Antiinvasive activity against human MNNG/HOS cells assessed as reduction in cell spreading area upto 48 hrs by DAPI staining based immunofluorescence microscopic analysis; format: functional; settings: dose 0.1-0.4 µM, DDE = dose-dependent effect
[12] = system: MG-63; test: Inhibition of alpha tubulin expression in human MG-63 cells at 0.1 to 0.4 uM measured after 48 hrs by western blot analysis; format: functional, cell-based; settings: dose 0.1-0.4 µM
[13] = system: HOS-TE85; test: Antiinvasive activity against human MNNG/HOS cells assessed as expression of FAK by measuring fluorescence at 0.1 to 0.4 uM upto 48 hrs by DAPI staining based immunofluorescence microscopic analysis; format: functional, cell-based; settings: dose 0.1-0.4 µM
[14] = target: T1, Platelet-derived growth factor receptor beta (Homo sapiens, UniProt P09619); test: Inhibition of PDGFRbeta phosphorylation in human MG-63 cells incubated for 48 hrs by Western blot analysis; format: cell-based
[15] = system: HOS-TE85; test: Antiproliferative activity against human MNNG/HOS cells xenografted in BALB/c nude mouse assessed as suppression of tumor growth at 15 to 30 mg/kg/day, po dosed for 14 days by immunohistochemistry analysis; format: functional, organism-based; settings: dose lower […], dose upper 30.0 mg/kg/day, time 14.0 day
[16] = system: MG-63; test: Inhibition of PDGF AA/BB-stimulated human MG-63 cell proliferation measured after 48 hrs by MTT assay; format: functional, cell-based; settings: dose 0.1-1.6 µM, DDE = dose-dependent effect
[17] = system: MG-63; test: Inhibition of alpha tubulin expression in human MG-63 cells assessed as effect on microtubule network at 0.1 to 0.4 uM by DAPI staining based immunofluorescence microscopic analysis; format: functional, cell-based; settings: dose 0.1-0.4 µM
[18] = target: T1, Platelet-derived growth factor receptor beta; test: Binding affinity to PDGFRbeta (unknown origin)
[19] = target: Focal adhesion kinase 1 (Homo sapiens) (UniProt Q05397); test: Inhibition of FAK phosphorylation in human MG-63 cells incubated for 48 hrs by Western blot analysis; format: cell-based; settings: dose 0.1-0.4 µM, DDE = dose-dependent effect
[20] = system: MG-63; test: Inhibition of cell invasion in human MG-63 cells at 0.1 to 0.4 uM measured after 48 hrs by crystal violet staining based transwell assay; format: functional; settings: dose 0.1-0.4 µM
[21] = system: HOS-TE85; test: In vivo inhibition of PDGFRbeta-mediated downstream signalling in human MNNG/HOS cells xenografted in BALB/c nude mouse assessed as phosphorylation of ERK in tumor tissue at 15 to 30 mg/kg/day, po for 14 days; format: functional, organism-based; settings: dose lower […], dose upper 30.0 mg/kg/day, time 14.0 day
[22] = system: MG-63; test: Induction of DNA damage in human MG-63 cells assessed as tail DNA at 0.1 to 0.4 uM measured after 48 hrs by comet assay; format: functional, cell-based; settings: dose 0.1-0.4 µM
[23] = system: HOS-TE85; test: Inhibition of alpha tubulin expression in human MNNG/HOS cells assessed as effect on microtubule network at 0.1 to 0.4 uM by DAPI staining based immunofluorescence microscopic analysis; format: functional, cell-based; settings: dose 0.1-0.4 µM
[24] = target: Platelet-derived growth factor receptor alpha (Homo sapiens, UniProt P16234); test: Binding affinity to PDGFRalpha (unknown origin)
[25] = target: T1, Platelet-derived growth factor receptor beta; test: Inhibition of PDGFRbeta phosphorylation in human MNNG/HOS cells incubated for 48 hrs by Western blot analysis; format: cell-based
[26] = system: HOS-TE85; test: Inhibition of PDGF AA/BB-stimulated human MNNG/HOS cell proliferation measured after 48 hrs by MTT assay; format: functional, cell-based; settings: dose 0.1-1.6 µM, DDE = dose-dependent effect
[27] = system: MG-63; test: Inhibition of PDGFRbeta expression in human MG-63 cells incubated for 48 hrs by Western blot analysis; format: functional, cell-based
[28] = target: T1, Platelet-derived growth factor receptor beta; test: Inhibition of PDGFRbeta-mediated downstream signalling in human MNNG/HOS cells assessed as suppression of ERK phosphorylation at 0.1 to 0.4 uM measured after 48 hrs by western blot analysis; format: cell-based; settings: dose 0.1-0.4 µM
[29] = target: T1, Platelet-derived growth factor receptor beta; test: Inhibition of PDGFRbeta-mediated downstream signalling in human MG-63 cells assessed as suppression of STAT3 phosphorylation at 0.1 uM measured after 48 hrs by western blot analysis; format: cell-based
[30] = system: HOS-TE85; test: Inhibition of colony formation in human MNNG/HOS cells by crystal violet staining based analysis; format: functional, cell-based; settings: dose 0.1-0.4 µM, DDE = dose-dependent effect
[31] = target: T1, Platelet-derived growth factor receptor beta; test: Inhibition of PDGFRbeta in PDGF AA/BB stimulated human MNNG/HOS cells assessed as reduction in fluorescence intensity measured after 48 hrs by DAPI staining based immunofluorescence analysis; format: cell-based; settings: dose 0.1-0.4 µM, DDE = dose-dependent effect
[32] = system: HOS-TE85; test: Inhibition of cell adhesion in human MNNG/HOS cells at 0.1 to 0.4 uM measured after 48 hrs by crystal violet staining based analysis; format: functional; settings: dose 0.1-0.4 µM
[33] = system: HOS-TE85; test: Antimigratory activity against human MNNG/HOS cells assessed as expression of FAK by measuring fluorescence at 0.1 to 0.4 uM upto 48 hrs by DAPI staining based immunofluorescence microscopic analysis; format: functional, cell-based; settings: dose 0.1-0.4 µM
[34] = system: HOS-TE85; test: Inhibition of PDGFRbeta expression in human MNNG/HOS cells incubated for 48 hrs by Western blot analysis; format: functional, cell-based
[35] = target: T1, Platelet-derived growth factor receptor beta; test: Inhibition of PDGFRbeta-mediated downstream signalling in human MNNG/HOS cells assessed as suppression of AKT phosphorylation at 0.1 to 0.4 uM measured after 48 hrs by western blot analysis; format: cell-based; settings: dose 0.1-0.4 µM
[36] = target: T1, Platelet-derived growth factor receptor beta; test: Inhibition of PDGFRbeta-mediated downstream signalling in human MNNG/HOS cells assessed as suppression of STAT3 phosphorylation at 0.1 to 0.4 uM measured after 48 hrs by western blot analysis; format: cell-based; settings: dose 0.1-0.4 µM
[37] = system: HOS-TE85; test: Inhibition of cell migration in human MNNG/HOS cells assessed as reduction of cell mobility after 48 hrs by scratch-wound healing assay; format: functional, cell-based; settings: dose 0.1-0.4 µM, DDE = dose-dependent effect
[38] = system: HOS-TE85; test: Inhibition of cell invasion in human MNNG/HOS cells at 0.1 to 0.4 uM measured after 48 hrs by crystal violet staining based transwell assay; format: functional; settings: dose 0.1-0.4 µM

T1 sequence (P09619 whole entry): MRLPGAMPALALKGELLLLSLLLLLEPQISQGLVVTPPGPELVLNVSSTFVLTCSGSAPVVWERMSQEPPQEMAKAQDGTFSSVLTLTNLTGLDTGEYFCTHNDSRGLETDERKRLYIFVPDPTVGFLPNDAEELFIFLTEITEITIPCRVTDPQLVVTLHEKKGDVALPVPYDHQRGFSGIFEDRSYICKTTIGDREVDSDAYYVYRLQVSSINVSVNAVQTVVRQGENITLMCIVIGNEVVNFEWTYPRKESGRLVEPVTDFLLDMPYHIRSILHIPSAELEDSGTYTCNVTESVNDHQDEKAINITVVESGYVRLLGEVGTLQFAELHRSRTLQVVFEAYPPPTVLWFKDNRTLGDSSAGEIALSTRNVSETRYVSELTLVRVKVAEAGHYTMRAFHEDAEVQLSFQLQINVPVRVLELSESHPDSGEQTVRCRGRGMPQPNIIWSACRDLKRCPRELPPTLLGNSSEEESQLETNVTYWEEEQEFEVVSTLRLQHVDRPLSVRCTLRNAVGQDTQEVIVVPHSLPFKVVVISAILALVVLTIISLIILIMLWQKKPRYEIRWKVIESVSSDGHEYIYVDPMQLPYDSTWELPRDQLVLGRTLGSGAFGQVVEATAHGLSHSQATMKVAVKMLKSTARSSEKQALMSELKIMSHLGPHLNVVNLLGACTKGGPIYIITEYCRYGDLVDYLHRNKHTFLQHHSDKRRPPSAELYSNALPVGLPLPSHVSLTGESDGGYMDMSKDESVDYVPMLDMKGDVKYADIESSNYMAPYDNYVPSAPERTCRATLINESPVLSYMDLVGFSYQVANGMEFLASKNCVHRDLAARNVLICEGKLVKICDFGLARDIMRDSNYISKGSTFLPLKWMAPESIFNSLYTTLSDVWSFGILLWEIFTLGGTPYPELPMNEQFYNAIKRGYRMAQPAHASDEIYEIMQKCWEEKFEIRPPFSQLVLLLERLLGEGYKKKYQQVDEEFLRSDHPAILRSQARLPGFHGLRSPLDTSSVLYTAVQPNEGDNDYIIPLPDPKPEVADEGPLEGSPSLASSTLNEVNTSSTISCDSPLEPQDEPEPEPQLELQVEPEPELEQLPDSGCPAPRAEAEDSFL
Sequence of Platelet-derived growth factor receptor alpha (P16234 whole entry): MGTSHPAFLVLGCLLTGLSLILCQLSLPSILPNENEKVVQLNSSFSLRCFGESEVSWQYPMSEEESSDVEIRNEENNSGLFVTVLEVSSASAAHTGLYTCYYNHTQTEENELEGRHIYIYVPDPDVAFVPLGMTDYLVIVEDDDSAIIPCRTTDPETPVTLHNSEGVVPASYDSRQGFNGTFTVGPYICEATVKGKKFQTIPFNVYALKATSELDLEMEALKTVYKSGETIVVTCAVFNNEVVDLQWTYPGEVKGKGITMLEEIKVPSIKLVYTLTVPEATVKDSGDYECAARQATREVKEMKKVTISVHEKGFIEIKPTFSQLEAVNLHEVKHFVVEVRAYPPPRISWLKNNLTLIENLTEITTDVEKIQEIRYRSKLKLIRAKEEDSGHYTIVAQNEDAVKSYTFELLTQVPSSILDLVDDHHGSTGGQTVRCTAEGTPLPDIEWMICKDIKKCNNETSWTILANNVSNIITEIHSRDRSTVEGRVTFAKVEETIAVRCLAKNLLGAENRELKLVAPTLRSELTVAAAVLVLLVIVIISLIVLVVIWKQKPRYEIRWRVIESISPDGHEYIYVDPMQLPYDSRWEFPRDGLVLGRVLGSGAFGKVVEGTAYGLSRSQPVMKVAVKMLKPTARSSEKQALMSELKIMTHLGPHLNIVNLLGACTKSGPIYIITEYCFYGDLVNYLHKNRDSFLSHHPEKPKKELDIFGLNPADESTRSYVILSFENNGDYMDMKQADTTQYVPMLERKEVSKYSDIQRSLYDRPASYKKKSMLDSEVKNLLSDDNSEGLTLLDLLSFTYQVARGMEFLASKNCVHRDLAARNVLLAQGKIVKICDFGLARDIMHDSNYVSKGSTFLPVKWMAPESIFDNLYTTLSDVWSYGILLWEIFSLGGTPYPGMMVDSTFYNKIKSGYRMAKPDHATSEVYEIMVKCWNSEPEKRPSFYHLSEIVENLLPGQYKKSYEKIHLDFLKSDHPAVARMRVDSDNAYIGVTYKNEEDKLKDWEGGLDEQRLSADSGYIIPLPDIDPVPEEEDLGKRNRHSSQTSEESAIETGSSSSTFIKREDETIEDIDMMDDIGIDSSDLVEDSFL
Sequence of Focal adhesion kinase 1 (Homo sapiens) (Q05397 2-1052 limits assumed): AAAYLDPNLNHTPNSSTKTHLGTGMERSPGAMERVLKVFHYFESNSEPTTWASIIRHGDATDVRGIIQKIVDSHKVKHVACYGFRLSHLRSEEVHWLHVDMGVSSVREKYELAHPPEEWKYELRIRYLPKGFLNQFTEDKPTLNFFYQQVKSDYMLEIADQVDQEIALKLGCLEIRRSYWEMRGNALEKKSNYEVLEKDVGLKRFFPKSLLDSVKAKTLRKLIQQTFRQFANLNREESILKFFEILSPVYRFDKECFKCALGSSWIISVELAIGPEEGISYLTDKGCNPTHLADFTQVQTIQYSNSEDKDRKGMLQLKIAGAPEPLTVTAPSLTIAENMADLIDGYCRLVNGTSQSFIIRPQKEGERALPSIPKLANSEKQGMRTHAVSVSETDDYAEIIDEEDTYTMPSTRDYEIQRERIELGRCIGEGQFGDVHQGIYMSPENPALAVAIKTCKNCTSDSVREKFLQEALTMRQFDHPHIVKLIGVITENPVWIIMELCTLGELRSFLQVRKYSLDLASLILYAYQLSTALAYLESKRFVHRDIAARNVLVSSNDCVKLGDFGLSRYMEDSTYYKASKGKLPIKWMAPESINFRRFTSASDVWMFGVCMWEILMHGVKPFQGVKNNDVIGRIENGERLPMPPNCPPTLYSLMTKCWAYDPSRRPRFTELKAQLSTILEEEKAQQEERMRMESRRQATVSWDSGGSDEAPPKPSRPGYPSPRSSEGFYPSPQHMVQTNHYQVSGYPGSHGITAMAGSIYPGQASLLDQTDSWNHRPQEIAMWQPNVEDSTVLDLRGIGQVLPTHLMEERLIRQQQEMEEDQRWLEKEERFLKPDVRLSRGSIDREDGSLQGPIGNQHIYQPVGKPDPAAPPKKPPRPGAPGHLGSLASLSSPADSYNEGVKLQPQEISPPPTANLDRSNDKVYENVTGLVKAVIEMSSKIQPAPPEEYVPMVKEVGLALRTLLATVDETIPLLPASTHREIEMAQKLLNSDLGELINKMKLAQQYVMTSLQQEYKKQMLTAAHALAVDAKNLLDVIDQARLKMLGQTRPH

CCN1CCN(c2ccc(Nc3ncc(C)c(Nc4ccc5cn[nH]c5c4)n3)cc2OC)CC1
active: inhibition [1] Dde | Activity [2] | inhibition [3] Dde | Activity [4] Dde | inhibition [5] | Activity [6] Dde | inhibition [7] | Activity [8] | inhibition [9] | inhibition [10] | Activity [11] Dde | inhibition [12] | Activity [13] | inhibition [14] | Activity [15] | inhibition [16] Dde | inhibition [17] | Activity [18] | inhibition [19] Dde | inhibition [20] | inhibition [21] | Activity [22] | inhibition [23] | Activity [24] | inhibition [25] | inhibition [26] Dde | inhibition [27] | inhibition [28] | inhibition [29] | inhibition [30] Dde | inhibition [31] Dde | inhibition [32] | Activity [33] | inhibition [34] | inhibition [35] | inhibition [36] | inhibition [37] Dde | inhibition [38]

Reference: ChEMBL document CHEMBL5154776, “Discovery of Potent and Orally Bioavailable Platelet-Derived Growth Factor Receptor (PDGFR) Inhibitors for the Treatment of Osteosarcoma” (J Med Chem, 2022)
